# Source: patent US8445281B2, “In vitro exposure of immature oocytes to BDNF enhances generation of embryonic stem cells” (The Board of Trustees of the Leland Stanford Junior …, priority 2006, dated 2013)
# B1: BDNF: recombinant human BDNF (Pepro-Tech), neurotrophin, ligand of TrkB (protein)
# chain: MTILFLTMVISYFGCMKAAPMKEANIRGQGGLAYPGVRTHGTLESFTVNGPKAGSRGLTSLADTFEHVIEELLDEDQKVRPNEENNKDADLYTSRVMLSSQVPLEPFTPLLFLLEEYKNYLDAANMSMRVRRHSDPARRGELSVCDSISEWVTAADKKTAVDMSGGTFTVTVLEKVPVSKGQLKQYFYETKCNPMGYTKEGCRGIDKRHWNSQCRTTQSYVRALTMDSFTKKRIGWRFIRIDTSCVCTLTIKRGR
# modifications: human
# notes: recombinant human BDNF (Pepro-Tech), neurotrophin, ligand of TrkB
# B2: NGF: mouse nerve growth factor (R & D Systems) (protein, UniProt P01139 122-241, looked up)
# Beta-nerve growth factor: SSTHPVFHMGEFSVCDSVSVWVGDKTTATDIKGKEVTVLAEVNINNSVFRQYFFETKCRASNPVESGCRGIDSKHWNSYCTTTHTFVKALTTDEKQAAWRFIRIDTACVCVLSRKATRRG
# B3: NT-3: human neurotrophin-3 (R & D Systems) (protein, UniProt P20783 139-257, looked up)
# Neurotrophin-3: YAEHKSHRGEYSVCDSESLWVTDKSSAIDIRGHQVTVLGEIKTGNSPVKQYFYETRCKEARPVKNGCRGIDDKHWNSQCKTSQTYVRALTSENNKLVGWRWIRIDTSCVCALSRKIGRT
# Columns and labels:
# [1] = test system: oocytes (cumulus oocyte complexes); test: First polar body extrusion by oocytes in cultured COCs; assay type: cell-based, mouse; conditions: for effect on the stimulatory effect of BDNF on first polar body extrusion: COCs, cotreatment with BDNF; for first polar body extrusion in cultured oocytes: COCs cultured 20 h without FBS, NGF and NT-3 at 10 ng/ml
# Experimental: Evaluation of First Polar Body Extrusion. For evaluating the transition from metaphase I stage to metaphase II (MII) stage oocytes, COCs were obtained from mouse ovaries 48 h after PMSG treatment by puncturing the largest follicles in M2 medium (Specialty Media, Phillipsburg, N.J.). COCs were washed twice, transferred to modified M16 medium (Specialty Media) without FBS, and cultured with or without different doses of BDNF, mouse nerve growth factor (NGF; R & D Systems), or human neurotrophin-3 (NT-3) (R & D Systems) for 20 h at 37° C. in 5% CO2/95% air. Some COCs were also cultured with BDNF with or without the TrkB ectodomain (R & D Systems), pan-specific Trk receptor inhibitor K252a (Calbiochem), or K252b. The occurrence of first polar body extrusion in the oocyte was examined after removing cumulus cells by using a small-bore pipette under Hoffman contrast microscopy (Nikon).
# [2] = test system: Trk receptor; test: In vivo treatment, progression of zygotes into blastocysts in vitro; parameters: species or system mouse; conditions: 10 μg i.p. at 0, 4, 8 h after hCG; for decrease in number of cells in the blastocysts / suppression of development of zygotes into blastocyst stage embryos: fertilized oocytes cultured 5 days
# Experimental: (§1) In Vivo Analysis. […] For negative controls, the plasma membrane nonsoluble K252b was used. Twelve hours after hCG injection, ovulated COCs were obtained from the oviducts. After treatment with hyaluronidase (Specialty Media) for 1-2 min, oocytes were separated from cumulus cells and the proportion of oocytes showing first polar body extrusion was evaluated. To evaluate the role of BDNF in the conditioning of oocytes for early embryo development, immature mice were treated with PMSG, followed by hCG as described above. […] Fertilized oocytes were separated from cumulus cells, washed three times in M2 medium, and cultured for 5 days in modified M16 medium. Embryonic development was monitored daily, and the progression of fertilized eggs into preimplantation embryos was assessed.
# [3] = test system: Trk receptor; test: In vivo first polar body extrusion by ovulated oocytes; parameters: species or system mouse; conditions: PMSG-primed mice, hCG with i.p. compound, 12 h after hCG
# Experimental: as §1
# [4] = test system: oocytes of preovulatory follicles; test: Preovulatory follicle culture, GVBD of oocytes; assay type: cell-based, mouse; conditions: cultured preovulatory follicles
# Experimental: Follicle Cultures. Preovulatory follicles were excised from mouse ovaries 48 h after PMSG treatment and cultured to examine nuclear maturation of oocytes (Kawamura et al. (2004) Proc. Natl. Acad. Sci. USA 101, 7323-7328). […] The vials were flushed at the start of the culture with O2/N2 (at a 1:1 ratio), sealed, and cultured at 37° C. with gentle shaking for 6 h. After culture, cumulus oocyte complexes (COCs) were isolated, and, after cumulus cells were removed, oocytes were examined for the occurrence of GVBD.
# [5] = test system: oocytes (cumulus oocyte complexes); test: In vitro maturation, fertilization and early embryonic development; assay type: cell-based, mouse
# Experimental: In Vitro Maturation, Fertilization, and Early Embryonic Development. We performed in vitro maturation of oocytes followed by in vitro fertilization as previously described, with slight modifications. COCs from PMSG-primed mice were obtained in the M2 medium supplemented with 5% FBS before culturing in minimum essential media-α (Invitrogen) supplemented with Earle's salts, 10 μg/ml streptomycin sulfate, 75 μg/ml penicillin G, and 5% FBS in the presence or absence of 3 ng/ml BDNF at 37° C. in 5% CO2/95% air. After 16 h of treatment, cumulus cells were removed and the oocytes were examined and classified according to their developmental stage (germinal vesicle, metaphase I, or MII). MII-stage oocytes were inseminated with sperm from B6D2F1 males and incubated for 4 h at 37° C. in 5% CO2/95% air. After in vitro fertilization, fertilized oocytes were recovered, washed three times, and cultured in human tubal fluid medium (Specialty Media). The following morning, two-cell stage embryos were collected and cultured in 2 ml of modified M16 medium for 5 days more up to the blastocyst stage at 37° C. in 5% CO2/95% air. Embryonic development was monitored daily by Hoffman modulation contrast microscopy, and the progression of fertilized eggs to preimplantation embryos was assessed.
# [6] = test system: MII oocytes; test: Glutathione content in oocytes; assay type: cell-based, mouse; conditions: COCs treated 16 h
# Experimental: FIGS. 4A-E depict BDNF conditioning of oocytes for development into preimplantation embryos. FIG. 4A is a bar graph indicating the percentage of MII oocytes that developed to two-cell or blastocyst-stage embryos. Specifically, COCs obtained from preovulatory follicles were cultured without (control) or with BDNF (3 ng/ml) for 16 h. After progression to the MII stage, oocytes were inseminated and cultured for 5 days more without hormones. The percentage of MII oocytes that developed to two-cell or blastocyst-stage embryos were evaluated (n=5, 34-95 oocytes per experiment). FIG. 4B indicates the effects of BDNF treatment on glutathione (GSH) content in oocytes. After treatment of COCs for 16 h without (control, C) or with BDNF, glutathione levels in oocytes at MII oocytes were evaluated (mean±SEM, n=6). FIG. 4C depicts the effects of K252a treatment in vivo on the progression of zygotes into blastocysts in vitro. […] After initial injection, mice were allowed to mate with fertile males. Fertilized oocytes were cultured for 5 days, and the number of blastocyst embryos was evaluated. FIG. 4D depicts the effects of K252a treatment on the number of cells in the blastocysts. […]
# Because the oocyte content of glutathione is important to sperm nuclear decondensation, the glutathione concentration in oocytes also was evaluated. […]
# [7] = pretreatment 3 ng/ml BDNF 16 h, then in vitro fertilization without BDNF
Molecule,effect on the stimulatory effect of BDNF on first polar body extrusion [1],decrease in number of cells in the blastocysts [2],suppression of development of zygotes into blastocyst stage embryos [2],inhibition of first polar body extrusion by ovulated oocytes [3],number of ovulated oocytes per animal [3],first polar body extrusion in cultured oocytes [1],further results
COC(=O)[C@@]1(O)C[C@H]2O[C@]1(C)n1c3ccccc3c3c4c(c5c6ccccc6n2c5c31)C(=O)NC4 [K252a],suppressed,51%,72%,30%,37.8±5.3,,number of fertilized oocytes vs control ([2]; oocytes collected 22 h after hCG): did not differ
CC12OC(CC1(O)C(=O)O)n1c3ccccc3c3c4c(c5c6ccccc6n2c5c31)C(=O)NC4 (stereo not shown) [K252b],not,not,ineffective,ineffective,38.4±8.7,,
"TrkB ectodomain: TrkB ectodomain (R & D Systems), antagonises BDNF stimulation",blocked,,,,,ineffective,
B1,,,,,,increased,"cumulus cell expansion [4]: did not induce; induction of GVBD in oocytes ([4]; 6 h, 5 μg/ml LH or BDNF): not and lack of effect; increase in proportion of oocytes showing first polar body extrusion (MII-stage oocytes) ([5]; COCs, 3 ng/ml BDNF, 16 h, 5% FBS): more than 2 fold; increase in proportion of MII oocytes that developed into blastocyst-stage embryos [5, 7]: 5 fold; increase in proportion of MII oocytes that developed into two-cell embryos [5, 7]: 2 fold; glutathione content in MII oocytes [6]: increased"
B2,,,,,,not,
B3,,,,,,not,
